The results in this text go back to patent publication US20240269139A1, “COMPOUNDS FOR TARGETED PROTEIN DEGRADATION OF KINASES” (DANA-FARBER CANCER INSTITUTE, INC., priority 2020, published 2024).

The target in assay [1] is protein kinases (human kinome) (Homo sapiens, UniProt Q9BYT3). The class given is cell-based. The conditions noted are these: STK33 (Q9BYT3-1), experiment wp146.
In assay [2] the target is protein kinases (human kinome) (Homo sapiens, UniProt Q00535). The class given is cell-based. The conditions noted are these: experiment wp146.
Chain of protein kinases (human kinome) (Homo sapiens, UniProt Q00535) (Q00535 whole entry): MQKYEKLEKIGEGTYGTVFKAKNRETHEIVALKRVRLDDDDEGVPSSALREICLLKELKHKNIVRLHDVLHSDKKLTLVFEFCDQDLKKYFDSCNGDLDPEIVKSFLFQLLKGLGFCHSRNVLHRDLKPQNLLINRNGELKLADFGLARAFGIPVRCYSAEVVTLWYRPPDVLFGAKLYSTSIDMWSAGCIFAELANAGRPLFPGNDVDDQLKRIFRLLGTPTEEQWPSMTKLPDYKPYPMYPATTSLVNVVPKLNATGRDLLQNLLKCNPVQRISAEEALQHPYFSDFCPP
The target in assay [3] is protein kinases (human kinome) (Homo sapiens, UniProt P24941). The class given is cell-based. Particulars: experiment wp146.
Assay [4] addresses protein kinases (human kinome) (Homo sapiens, UniProt P45984). The class given is cell-based. Particulars: MAPK9 P45984-1; experiment wp146.
Assay [5] has as its target T1, protein kinases (human kinome) (Homo sapiens, UniProt O14965).
T1 sequence (O14965 1-403): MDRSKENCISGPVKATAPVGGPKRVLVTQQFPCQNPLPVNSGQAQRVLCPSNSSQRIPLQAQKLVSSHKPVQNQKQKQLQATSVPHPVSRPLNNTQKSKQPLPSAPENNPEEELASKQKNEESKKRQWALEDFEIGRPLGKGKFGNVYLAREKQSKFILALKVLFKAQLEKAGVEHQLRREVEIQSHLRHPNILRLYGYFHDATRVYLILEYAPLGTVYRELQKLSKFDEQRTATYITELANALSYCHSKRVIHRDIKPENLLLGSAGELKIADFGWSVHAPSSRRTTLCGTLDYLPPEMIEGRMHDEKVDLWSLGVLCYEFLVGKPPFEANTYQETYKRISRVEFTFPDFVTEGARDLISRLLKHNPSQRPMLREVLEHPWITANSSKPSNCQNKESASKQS
The class given is cell-based. Particulars: experiment wp146.

Assay [6] deals with protein kinases (human kinome) (Homo sapiens, UniProt P06493). The class given is cell-based. Particulars: CDK1 P06493; experiment wp146.
Chain of protein kinases (human kinome) (Homo sapiens, UniProt P06493) (P06493 whole entry): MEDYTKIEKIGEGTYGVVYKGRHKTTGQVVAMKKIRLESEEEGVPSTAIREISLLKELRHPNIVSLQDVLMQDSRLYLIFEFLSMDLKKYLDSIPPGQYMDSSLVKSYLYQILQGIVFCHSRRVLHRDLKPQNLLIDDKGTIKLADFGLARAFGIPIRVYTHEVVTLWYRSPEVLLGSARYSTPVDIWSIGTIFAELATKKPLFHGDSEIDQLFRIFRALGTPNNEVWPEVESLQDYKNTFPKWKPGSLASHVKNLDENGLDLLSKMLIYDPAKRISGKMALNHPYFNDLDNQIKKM
The target of assay [7] is protein kinases (human kinome) (Homo sapiens, UniProt P51812). The class given is cell-based. The conditions noted are these: RPS6KA3 (P51812), experiment wp146.
Chain of protein kinases (human kinome) (Homo sapiens, UniProt P51812) (P51812 whole entry): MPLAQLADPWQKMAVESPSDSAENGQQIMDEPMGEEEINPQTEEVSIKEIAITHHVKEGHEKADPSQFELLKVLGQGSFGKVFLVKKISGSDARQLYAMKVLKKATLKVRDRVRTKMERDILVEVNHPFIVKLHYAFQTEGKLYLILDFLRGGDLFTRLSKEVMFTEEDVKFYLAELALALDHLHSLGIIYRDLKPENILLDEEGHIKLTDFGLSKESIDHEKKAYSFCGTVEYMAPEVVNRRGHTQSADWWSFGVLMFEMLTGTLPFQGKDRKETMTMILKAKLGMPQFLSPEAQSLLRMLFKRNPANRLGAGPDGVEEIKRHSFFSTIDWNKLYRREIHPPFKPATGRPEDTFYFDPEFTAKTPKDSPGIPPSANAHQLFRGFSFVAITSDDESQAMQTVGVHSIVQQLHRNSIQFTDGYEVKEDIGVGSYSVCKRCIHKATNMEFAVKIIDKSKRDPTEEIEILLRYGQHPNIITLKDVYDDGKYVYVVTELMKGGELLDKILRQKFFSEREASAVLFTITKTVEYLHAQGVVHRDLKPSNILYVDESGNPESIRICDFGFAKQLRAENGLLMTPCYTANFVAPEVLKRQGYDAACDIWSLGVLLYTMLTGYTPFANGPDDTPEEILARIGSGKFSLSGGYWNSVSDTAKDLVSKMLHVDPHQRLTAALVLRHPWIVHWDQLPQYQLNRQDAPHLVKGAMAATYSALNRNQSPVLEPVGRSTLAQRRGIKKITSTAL
Assay [8] deals with protein kinases (human kinome) (Homo sapiens, UniProt Q05397). The class given is cell-based. Particulars: PTK2 Q05397; experiment wp146.
Chain of protein kinases (human kinome) (Homo sapiens, UniProt Q05397) (Q05397 whole entry): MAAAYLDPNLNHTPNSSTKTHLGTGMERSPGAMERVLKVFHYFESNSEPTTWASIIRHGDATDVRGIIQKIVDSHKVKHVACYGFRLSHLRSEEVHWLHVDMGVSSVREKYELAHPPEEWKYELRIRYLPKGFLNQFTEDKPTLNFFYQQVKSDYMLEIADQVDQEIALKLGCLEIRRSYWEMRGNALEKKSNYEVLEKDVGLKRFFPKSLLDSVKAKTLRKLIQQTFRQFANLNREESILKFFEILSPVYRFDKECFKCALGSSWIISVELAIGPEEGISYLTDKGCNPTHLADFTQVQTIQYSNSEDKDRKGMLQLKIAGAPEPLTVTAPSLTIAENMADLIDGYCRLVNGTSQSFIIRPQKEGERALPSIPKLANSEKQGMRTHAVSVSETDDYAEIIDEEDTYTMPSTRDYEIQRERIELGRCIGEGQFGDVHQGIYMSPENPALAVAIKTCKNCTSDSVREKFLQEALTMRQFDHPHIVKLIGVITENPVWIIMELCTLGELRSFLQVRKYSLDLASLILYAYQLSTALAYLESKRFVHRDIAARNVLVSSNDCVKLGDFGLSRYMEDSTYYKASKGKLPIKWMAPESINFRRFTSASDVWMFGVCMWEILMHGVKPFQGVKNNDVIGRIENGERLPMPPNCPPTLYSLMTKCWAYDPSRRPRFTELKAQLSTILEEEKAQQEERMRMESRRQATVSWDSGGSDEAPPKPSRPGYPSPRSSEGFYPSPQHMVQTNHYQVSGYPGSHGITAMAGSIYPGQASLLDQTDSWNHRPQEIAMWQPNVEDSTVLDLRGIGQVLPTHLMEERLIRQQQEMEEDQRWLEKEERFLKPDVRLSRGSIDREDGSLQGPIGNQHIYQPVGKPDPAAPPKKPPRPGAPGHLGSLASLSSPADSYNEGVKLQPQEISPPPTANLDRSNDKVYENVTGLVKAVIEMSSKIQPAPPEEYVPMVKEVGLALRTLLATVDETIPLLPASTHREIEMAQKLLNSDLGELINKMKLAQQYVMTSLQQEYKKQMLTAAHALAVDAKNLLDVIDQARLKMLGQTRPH
In assay [9] the target is T2, protein kinases (human kinome) (Homo sapiens, UniProt P33981).
T2 sequence (P33981 1-857): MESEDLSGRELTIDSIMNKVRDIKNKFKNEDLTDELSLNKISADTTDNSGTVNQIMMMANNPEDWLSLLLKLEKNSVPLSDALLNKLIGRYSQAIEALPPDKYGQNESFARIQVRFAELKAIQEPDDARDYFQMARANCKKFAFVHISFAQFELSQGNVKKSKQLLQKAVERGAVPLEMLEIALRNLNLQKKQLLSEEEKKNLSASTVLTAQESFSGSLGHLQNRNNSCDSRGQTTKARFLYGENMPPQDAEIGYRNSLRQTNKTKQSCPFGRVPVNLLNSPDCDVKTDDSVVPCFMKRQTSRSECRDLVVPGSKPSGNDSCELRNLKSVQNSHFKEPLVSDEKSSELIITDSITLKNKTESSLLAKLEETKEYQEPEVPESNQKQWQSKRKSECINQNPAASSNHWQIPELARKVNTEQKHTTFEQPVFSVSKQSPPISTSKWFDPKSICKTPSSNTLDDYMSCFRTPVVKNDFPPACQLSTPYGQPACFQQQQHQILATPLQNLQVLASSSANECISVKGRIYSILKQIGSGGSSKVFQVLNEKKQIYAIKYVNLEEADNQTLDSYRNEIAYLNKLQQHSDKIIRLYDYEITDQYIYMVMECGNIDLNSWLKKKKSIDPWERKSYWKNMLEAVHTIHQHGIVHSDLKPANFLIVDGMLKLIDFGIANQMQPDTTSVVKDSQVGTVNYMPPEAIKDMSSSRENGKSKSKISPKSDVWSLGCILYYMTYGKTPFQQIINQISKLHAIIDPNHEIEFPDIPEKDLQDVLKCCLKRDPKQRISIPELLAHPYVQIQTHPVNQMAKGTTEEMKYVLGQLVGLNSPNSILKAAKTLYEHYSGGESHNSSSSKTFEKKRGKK
The class given is cell-based. The conditions noted are these: experiment wp146.

For assay [10], the system named is protein kinases (human kinome). The class given is cell-based.
Assay [11] addresses T3, protein kinases (human kinome) (Homo sapiens, UniProt Q969Z0).
T3 sequence (Q969Z0 108-631): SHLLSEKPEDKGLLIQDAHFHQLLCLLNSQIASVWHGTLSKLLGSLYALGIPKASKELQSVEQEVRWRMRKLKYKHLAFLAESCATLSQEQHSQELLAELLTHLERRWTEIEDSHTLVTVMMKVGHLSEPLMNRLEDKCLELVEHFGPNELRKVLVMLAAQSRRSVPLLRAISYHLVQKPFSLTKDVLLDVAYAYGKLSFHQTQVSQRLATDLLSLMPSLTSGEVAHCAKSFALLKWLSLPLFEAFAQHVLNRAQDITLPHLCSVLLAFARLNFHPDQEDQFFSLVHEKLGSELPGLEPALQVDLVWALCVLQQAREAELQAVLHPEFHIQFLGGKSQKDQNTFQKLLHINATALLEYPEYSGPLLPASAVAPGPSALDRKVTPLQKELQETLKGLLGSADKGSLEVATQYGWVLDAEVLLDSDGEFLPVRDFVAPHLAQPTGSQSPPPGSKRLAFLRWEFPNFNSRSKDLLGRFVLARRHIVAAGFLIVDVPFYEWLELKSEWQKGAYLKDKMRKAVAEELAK
The class given is cell-based. Particulars: Accession Q969Z0-1; experiment wp084; direction down.

In assay [12] the target is T4, extended human kinome (kinase-like proteins) (Homo sapiens, UniProt Q9UHH9).
T4 sequence (Q9UHH9 1-426): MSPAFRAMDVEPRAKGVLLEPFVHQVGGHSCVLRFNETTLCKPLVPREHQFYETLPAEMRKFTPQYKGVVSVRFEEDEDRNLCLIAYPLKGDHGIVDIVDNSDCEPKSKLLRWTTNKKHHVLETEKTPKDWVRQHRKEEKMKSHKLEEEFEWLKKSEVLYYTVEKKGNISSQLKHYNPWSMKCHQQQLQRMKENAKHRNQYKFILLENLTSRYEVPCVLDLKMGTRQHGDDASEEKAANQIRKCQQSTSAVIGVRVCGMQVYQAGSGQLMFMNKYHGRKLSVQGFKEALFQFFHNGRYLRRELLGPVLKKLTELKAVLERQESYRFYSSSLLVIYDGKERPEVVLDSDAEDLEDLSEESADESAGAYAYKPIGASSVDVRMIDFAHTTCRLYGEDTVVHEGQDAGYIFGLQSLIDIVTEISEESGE
Description: Whole cell quantitative proteomics: extended kinome hits. Particulars: Accession Q9UHH9; experiment wp195.

For assay [13], the target named is T5, protein kinases (human kinome) (Homo sapiens, UniProt Q9UEE5).
T5 sequence (Q9UEE5 1-414): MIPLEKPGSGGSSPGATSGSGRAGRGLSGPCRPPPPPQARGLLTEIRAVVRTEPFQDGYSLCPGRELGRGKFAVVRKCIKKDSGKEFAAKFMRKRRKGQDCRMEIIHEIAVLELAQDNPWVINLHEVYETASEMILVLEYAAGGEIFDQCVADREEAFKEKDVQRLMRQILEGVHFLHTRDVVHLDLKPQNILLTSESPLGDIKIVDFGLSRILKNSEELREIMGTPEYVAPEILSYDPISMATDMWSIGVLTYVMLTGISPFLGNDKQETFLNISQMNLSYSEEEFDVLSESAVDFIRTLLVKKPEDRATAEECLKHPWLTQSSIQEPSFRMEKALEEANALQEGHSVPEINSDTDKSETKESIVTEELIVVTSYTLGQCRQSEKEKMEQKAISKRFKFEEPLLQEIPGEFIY
The class given is cell-based. Particulars: STK17A Q9UEE5; experiment wp195.

Assay [14] addresses T6, protein kinases (human kinome) (Homo sapiens, UniProt O95835).
T6 sequence (O95835 1-1130): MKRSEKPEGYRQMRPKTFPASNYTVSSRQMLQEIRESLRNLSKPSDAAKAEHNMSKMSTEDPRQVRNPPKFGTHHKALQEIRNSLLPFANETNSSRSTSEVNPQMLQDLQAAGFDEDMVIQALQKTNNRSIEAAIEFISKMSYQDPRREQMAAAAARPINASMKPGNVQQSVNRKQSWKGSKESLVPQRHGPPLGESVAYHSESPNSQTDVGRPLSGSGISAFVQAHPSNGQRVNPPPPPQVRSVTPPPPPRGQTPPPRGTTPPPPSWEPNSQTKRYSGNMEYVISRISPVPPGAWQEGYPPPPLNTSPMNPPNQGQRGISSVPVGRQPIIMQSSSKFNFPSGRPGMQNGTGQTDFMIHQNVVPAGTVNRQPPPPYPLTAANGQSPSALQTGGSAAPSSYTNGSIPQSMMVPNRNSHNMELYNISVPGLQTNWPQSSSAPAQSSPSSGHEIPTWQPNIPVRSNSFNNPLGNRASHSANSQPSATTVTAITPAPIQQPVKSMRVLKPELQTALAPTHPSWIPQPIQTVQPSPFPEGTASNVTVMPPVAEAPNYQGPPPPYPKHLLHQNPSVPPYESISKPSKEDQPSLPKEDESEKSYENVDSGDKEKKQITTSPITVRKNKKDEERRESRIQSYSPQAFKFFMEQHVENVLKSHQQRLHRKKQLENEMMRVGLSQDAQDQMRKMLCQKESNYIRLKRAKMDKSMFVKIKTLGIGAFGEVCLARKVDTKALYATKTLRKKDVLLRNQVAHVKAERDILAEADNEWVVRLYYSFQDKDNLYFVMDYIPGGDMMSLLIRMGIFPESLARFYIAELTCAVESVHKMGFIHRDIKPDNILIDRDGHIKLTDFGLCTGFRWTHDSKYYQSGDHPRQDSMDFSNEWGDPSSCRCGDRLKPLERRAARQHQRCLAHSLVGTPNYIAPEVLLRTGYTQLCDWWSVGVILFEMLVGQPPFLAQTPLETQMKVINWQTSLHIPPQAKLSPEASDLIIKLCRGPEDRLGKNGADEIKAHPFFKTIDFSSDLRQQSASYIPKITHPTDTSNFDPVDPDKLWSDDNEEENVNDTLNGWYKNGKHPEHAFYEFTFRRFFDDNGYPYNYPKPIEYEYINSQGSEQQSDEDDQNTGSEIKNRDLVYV
The class given is cell-based. Particulars: LATS1 O95835; experiment wp195.

The mark [15] stands for this setting: AURKB Q96GD4-5, experiment wp146.

Where two headings read alike, the source gives them in different places.

Chain of protein kinases (human kinome) (Homo sapiens, UniProt Q9BYT3) (Q9BYT3 whole entry): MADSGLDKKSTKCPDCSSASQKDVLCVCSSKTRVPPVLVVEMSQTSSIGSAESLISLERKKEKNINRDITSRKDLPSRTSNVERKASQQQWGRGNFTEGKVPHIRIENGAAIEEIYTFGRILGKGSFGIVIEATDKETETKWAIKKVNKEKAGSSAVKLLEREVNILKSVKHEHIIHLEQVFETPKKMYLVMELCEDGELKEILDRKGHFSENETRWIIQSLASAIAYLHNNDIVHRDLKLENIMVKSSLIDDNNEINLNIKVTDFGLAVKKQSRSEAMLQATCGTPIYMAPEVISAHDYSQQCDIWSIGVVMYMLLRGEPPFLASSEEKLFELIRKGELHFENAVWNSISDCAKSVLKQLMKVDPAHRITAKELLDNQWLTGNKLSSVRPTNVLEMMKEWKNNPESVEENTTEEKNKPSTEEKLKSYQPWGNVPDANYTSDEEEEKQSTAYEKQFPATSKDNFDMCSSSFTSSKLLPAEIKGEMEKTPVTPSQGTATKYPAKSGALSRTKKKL
Chain of protein kinases (human kinome) (Homo sapiens, UniProt P45984) (P45984 whole entry): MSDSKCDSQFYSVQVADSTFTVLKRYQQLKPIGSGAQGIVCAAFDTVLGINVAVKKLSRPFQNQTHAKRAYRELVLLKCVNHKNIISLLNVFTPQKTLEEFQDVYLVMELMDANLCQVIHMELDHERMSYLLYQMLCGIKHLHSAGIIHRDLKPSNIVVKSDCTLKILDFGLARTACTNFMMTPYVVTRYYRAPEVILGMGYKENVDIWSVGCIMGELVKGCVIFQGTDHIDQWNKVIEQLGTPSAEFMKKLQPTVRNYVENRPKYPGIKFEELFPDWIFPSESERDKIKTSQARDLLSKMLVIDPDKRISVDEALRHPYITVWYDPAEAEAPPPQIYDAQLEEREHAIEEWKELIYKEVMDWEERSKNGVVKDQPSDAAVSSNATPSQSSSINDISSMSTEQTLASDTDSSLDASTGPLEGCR

Take `Cc1cc(S(=O)(=O)NCCOCCOCCOCCOCCNc2cccc3c2C(=O)N(C2CCC(=O)NC2=O)C3=O)ccc1Nc1ncc(Br)c(Nc2cccc(F)c2C(N)=O)n1` (centres unmarked) [TMX.02.172]: the logFC was −1.295 in assay [1]; −1.295 in [1] (direction down); −1.091 in assay [4]; −1.302 in assay [6]; −0.8349 in assay [7]; −0.8349 in assay [7] (direction down). Moreover, the logFC in assay [8] is recorded as −0.7381; in assay [10] (setting [15]), −0.4856. Further, the “logFC CDK5 (Q00535)” value in [2] and in assay [2] (direction of change down) was −2.878 in each case. The “logFC CDK2 (P24941-1)” value in assay [3] and in assay [3] (direction of change down) was −2.199 in each case. Also, the “logFC MAPK9” value in assay [4] is −1.091. Besides, the “logFC AURKA (O14965)” value in assay [5] is reported as −2.402. In addition, in assay [6], the “logFC CDK1” value is given as −1.302. In [8], the “logFC PTK2” value is reported as −0.7381. Further, in [9] (Accession P33981), the “logFC TTK” value was −0.7542. Further, the “logFC TTK (P33981)” value in [9] is listed as −0.7542. For the same compound, the “logFC AURKB” value in assay [10] (setting [15]) was −0.4856. Moreover, the “logFC MAPK8 (P45983-4)” value in [10] (Experiment wp146, direction down) was −0.5524. Also, in assay [10] (MAPK8 P45983-4, experiment wp146), the “logFC MAPK8” value is on record as −0.5524. The “logFC RPS6KA1” value in assay [10] (RPS6KA1 (Q15418-2), experiment wp146) is on record as −1.351. Moreover, in [10] (experiment wp146), the “logFC RPS6KA1 (Q15418-2)” value was −1.351.

Take `CC(=O)c1c(C)c2cnc(Nc3ccc(N4CCN(CCOCCOCCOCCNC(=O)COc5cccc6c5C(=O)N(C5CCC(=O)NC5=O)C6=O)CC4)cn3)nc2n(C2CCCC2)c1=O` (centres unmarked) [BS.J.03.123]: in assay [11], the “logFC TBRG4” value is given as −0.5.

`Cc1ncsc1-c1ccc([C@H](C)NC(=O)[C@@H]2C[C@@H](O)CN2C(=O)[C@@H](NC(=O)CCCCOc2ccccc2-c2ccc3nc(-c4cccnc4N)n(-c4ccc(C5(N)CCC5)cc4)c3n2)C(C)(C)C)cc1` [INY.04.125.01]: the “logFC IP6K2” value in assay [12] is on record as −0.4946. In assay [13], the logFC was −0.4084 and the “logFC STK17A” value is recorded as −0.4084. Also, in assay [14], the logFC is recorded as −0.4176 and the “logFC LATS1” value is listed as −0.4176.
